Drawing on paper PMC6934184, “Selective DNA-PKcs inhibition extends the therapeutic index of localized radiotherapy and chemotherapy” (The Journal of Clinical Investigation, 2019), this text covers inhibition for one molecule.

This experiment has as its target T1, STK4 (MST1) (Homo sapiens, UniProt Q13043).
T1 construct: purchased Thermo Fisher Scientific (Life Technologies) SelectScreen
The experiment is described as follows: SelectScreen Z'LYTE. The class given is biochemical. The essentials: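 NU5455 was profiled across the SelectScreen Broad panel of kinase activity and binding assays. Z'LYTE reactions such as CSF1R ran at apparent Km ATP, while the Adapta CAMK1 assay used ATP listed as 10. Values are given as percent.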

T1 sequence (Q13043 whole entry): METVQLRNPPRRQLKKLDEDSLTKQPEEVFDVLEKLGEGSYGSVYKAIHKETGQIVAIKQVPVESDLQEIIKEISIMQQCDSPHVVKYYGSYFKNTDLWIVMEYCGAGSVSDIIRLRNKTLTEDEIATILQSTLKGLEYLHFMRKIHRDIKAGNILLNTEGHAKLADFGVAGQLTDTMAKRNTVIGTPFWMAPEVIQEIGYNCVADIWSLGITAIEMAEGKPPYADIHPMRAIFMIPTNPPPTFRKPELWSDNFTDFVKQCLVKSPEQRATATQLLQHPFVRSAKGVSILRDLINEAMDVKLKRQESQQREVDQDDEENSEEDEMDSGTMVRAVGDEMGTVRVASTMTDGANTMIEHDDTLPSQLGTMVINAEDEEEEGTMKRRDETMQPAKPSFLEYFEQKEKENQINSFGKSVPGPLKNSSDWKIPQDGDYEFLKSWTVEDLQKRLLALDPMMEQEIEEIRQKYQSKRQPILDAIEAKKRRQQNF

Usually inhibition stands for the change of the read-out against control, counted positive when it falls. As for `CN(C(=O)CN1CCOCC1)c1ccc2sc3c(-c4cccc5c(=O)cc(N6CC7CCC(C6)O7)oc45)cccc3c2c1` [NU5455], the inhibition at 1 µM was -4.4%.
